We go through 15 compounds from patent EP4356928A1, “NUCLEOSIDE DIPHOSPHATE OR DIPHOSPHONATE PRODRUGS, OR NUCLEOSIDE ANALOGUE DIPHOSPHATE OR DIPHOSPHONATE PRODRUGS” (Universität Hamburg, priority 2022, dated 2024).

Read-outs that look alike come from different tables or passages of the source. Where only a bound is given, the exact number is not on record here.

Data set [1] deals with HIV-2 (ROD). As to the kind of experiment: Inhibition of HIV-2 replication in thymidine kinase-deficient CEM/TK- cell cultures. In kind it is cell-based. The conditions noted are these: for EC50: Human immunodeficiency virus 2, CEM-TK(-), read-out: Antiviral activity EC50 CEM/TK^- HIV-2 (ROD). The procedure: (§1) All β-phosph(on)ate prodrug compounds were evaluated for their activity to inhibit the replication of HIV in HIV-1- and HIV-2-infected wild-type (CEM/0) cell cultures and in HIV-2-infected mutant thymidine kinase-deficient (CEM/TK^-) cell cultures (see Table 3).
(§2) Antiviral activity was determined in CD4^+ T-lymphocytes: 50% effective concentration (EC50 [µM]).

The nature of data set [2]: Cytotoxicity: inhibition of CD4+ T-cell (CEM) proliferation. The conditions noted are these: human. Here is the method:
(§3) In addition, a selectivity index (SI) was determined. The selectivity index is the ratio between cell toxicity and […], the ratio between cell toxicity (see Table 4) and EC50 CEM/TK^- (see right column of Table 3).
(§4) Table 4: Cytotoxicity (CC50 [µM]) and selectivity index (SI) of tested prodrug compounds.

For data set [3], the system named is CD4^+ T-cell (CEM). The description is as above. Particulars: ratio between cell toxicity (CC50) and EC50 CEM/TK-. Here is the method: as §3, §4
Data set [4] concerns HIV-1 (HE). Put plainly: Inhibition of HIV-1 replication in wild-type CEM/0 cell cultures. In kind it is cell-based. The conditions noted are these: Human immunodeficiency virus 1, CCRF-CEM, read-out: Antiviral activity EC50 HIV-1 (HE). The procedure:
as §1, §2

For data set [5], the system named is HIV-2 (ROD). As to the kind of experiment: Inhibition of HIV-2 replication in wild-type CEM/0 cell cultures. In kind it is cell-based. Particulars: Human immunodeficiency virus 2, CCRF-CEM, read-out: Antiviral activity EC50 HIV-2 (ROD). Here is the method: as §1, §2
Data set [6] in a line: Chemical stability (hydrolysis half-life) in phosphate-buffered saline, RP-18 HPLC. The conditions noted are these: phosphate buffer saline (PBS, pH 7.3); read-out: Half-lives PBS (converted). In kind it is physicochemical. Here is the method:
(§5) Stability tests regarding a number of differently substituted β-phosphate and β-phosphonate nucleoside prodrugs were conducted. The chemical and biological stability was tested in different media (phosphate-buffered saline PBS (pH 7.3), pig liver esterase (PLE), CEM cell extracts) and rated by determining the half-live of these compounds. The products of the respective hydrolysis were detected by analytical RP-18 HPLC.
(§6) Results of the hydrolysis experiments in different media (PBS (pH = 7.3), PLE (pig liver esterase) in PBS, or CEM-T cell extracts) are shown in Table 2.
(§7) Table 2: Half-lives (in hours) of the β-phosph(on)ate prodrug compounds of the invention in phosphate buffer saline (PBS, pH 7.3), PLE (100 units/mL pig liver esterase in PBS) and CEM/0 cell extracts. n.d. = not determined.

The nature of data set [7]: Stability (hydrolysis half-life) against pig liver esterase in PBS, RP-18 HPLC. In kind it is in vitro ADME. The conditions noted are these: pH 7.3; 100 units/mL pig liver esterase in PBS; read-out: Half-lives PLE (converted). The procedure: as §5, §6, §7
Data set [8] in a line: Stability (hydrolysis half-life) in CEM/0 cell extracts, RP-18 HPLC. In kind it is in vitro ADME. Particulars: human, read-out: Half-lives CEM T cell extracts (converted). Here is the method:
as §5, §6, §7

The mark [9] stands for this setting: CD4+ T-lymphocytes (CEM/0), mean ±SD of n=2-3.

As usually defined, the CC50 is the concentration at which the toxic effect on the cells reaches its halfway point. Higher therefore signals better tolerance by the cells.

`Nc1nc(NC2CC2)c2ncn([C@H]3C=C[C@@H](CO)C3)c2n1` [ABC, abacavir, reference compound]: the figures for the EC50 in data set [1], in data set [4] (setting [9]) and in data set [5] (setting [9]) were 1980 ± 860 nM, 9390 ± 2450 nM and 3510 ± 3250 nM, respectively. In data set [2], this compound showed a CC50 greater than 100000 nM. In data set [3], the “Selectivity index (SI)” value is on record as greater than 50.
For the compound `Cc1cn([C@H]2C[C@H](N=[N+]=[N-])[C@@H](CO)O2)c(=O)[nH]c1=O` [AZT, zidovudine, reference compound], the EC50 in data set [1] is greater than 100000 nM; in data set [4] (setting [9]) it was 14 ± 8.5 nM; in data set [5] it was 3.4 ± 2.1 nM. The CC50 in data set [2] is greater than 100000 nM. Further, in data set [3], the “Selectivity index (SI)” value is listed as greater than 1.
Regarding `Cc1cn([C@H]2C[C@H](F)[C@@H](CO)O2)c(=O)[nH]c1=O` [FLT, alovudine, reference compound], the values for the EC50 in data set [1], in data set [4] (setting [9]) and in data set [5] were greater than 100000 nM, 2.5 ± 2.9 nM and 4.3 ± 1.7 nM, respectively. Also, the CC50 in data set [2] was greater than 100000 nM.
As to `CCCCCCCCCCCCCCCCCCOP(=O)(OCCCC)OP(=O)(O)OC[C@@H]1C=C[C@H](n2cc(C)c(=O)[nH]c2=O)O1` (some centres unmarked) [No 16], the “improvement of antiviral activity as compared to the nucleoside analogue d4T” value in data set [1] (HIV-2 in CEM/TK- cells, versus d4T) is 45.400 fold. The EC50 in data set [1] amounted to 1.1 nM; in data set [4], 33 ± 22 nM; in data set [5], 4.4 ± 1.3 nM. Further, the half-life was greater than 41.7 days in data set [6], greater than 150 h in data set [7] and greater than 18 h in data set [8]. In data set [2] (cem cells), this compound gave a CC50 of 41300 nM.
Turning to `CCCCCCCCCCCCCCCCCCOP(=O)(OCC(CC)CCCC)OP(=O)(O)OC[C@@H]1C=C[C@H](n2cc(C)c(=O)[nH]c2=O)O1` (some centres unmarked) [No 17], the EC50 in data set [1] was 11 ± 0.71 nM; in data set [4], 71 ± 52 nM; in data set [5] it was 45 ± 46 nM. For the same compound, the half-life in data set [6] is greater than 41.7 days. The compound further displayed a CC50 in data set [2] (cem cells) of 46500 nM. The “Selectivity index (SI)” value in data set [3] stood at 4226.
As to `CCCCCCCCCCCCCCCCCCP(=O)(OCCCC)OP(=O)(O)OC[C@@H]1C=C[C@H](n2cc(C)c(=O)[nH]c2=O)O1` (some centres unmarked) [No 18], the EC50 is 2.1 ± 3.4 nM in data set [1], 31 ± 27 nM in data set [4] and 16 ± 8.3 nM in data set [5]. The half-life in data set [6] was greater than 125 days; in data set [7] it was greater than 150 h; in data set [8], greater than 40 h. Also, the midpoint of cytotoxicity in data set [2] (cem cells), the CC50, lay at 42600 nM. For the same compound, in data set [3], the “Selectivity index (SI)” value worked out at 20309.
`CCCCCCCCCCCCCCCCCCOP(=O)(OCCCC)OP(=O)(O)OC[C@H]1O[C@@H](n2cc(C)c(=O)[nH]c2=O)C[C@@H]1N=[N+]=[N-]` (some centres unmarked) [No 19]: the EC50 in data set [1] was found to be 43 ± 48 nM; in data set [4], 58 ± 50 nM; in data set [5] it was 25 ± 9 nM. Further, the half-life in data set [6] is 42.8 days; in data set [7] it was greater than 150 h; in data set [8] it was greater than 8 h. This compound came in with a CC50 in data set [2] (cem cells) of 47800 nM. For the same compound, the “Selectivity index (SI)” value in data set [3] came out at 1112.
For `CCCCCCCCCCCCCCCCCCP(=O)(OCCCC)OP(=O)(O)OC[C@H]1O[C@@H](n2cc(C)c(=O)[nH]c2=O)C[C@@H]1N=[N+]=[N-]` (some centres unmarked) [No 20], the EC50 in data set [1] turned out to be 170 ± 130 nM; in data set [4], 87 ± 55 nM; in data set [5], 20 ± 8 nM. Moreover, the figures for the half-life in data set [6], in data set [7] and in data set [8] were greater than 83.3 days, greater than 150 h and greater than 18 h, respectively. Also, the CC50 in data set [2] (cem cells) worked out at 82700 nM. Further, the “Selectivity index (SI)” value in data set [3] is reported as 487.
Take `CCCCCCCCCCCCCCCCCCOP(=O)(OCCCC)OP(=O)(O)OC[C@H]1O[C@@H](n2cc(C)c(=O)[nH]c2=O)C[C@@H]1F` (some centres unmarked) [No 21]: the values for the EC50 in data set [1], in data set [4] and in data set [5] were 17 ± 16 nM, 6.7 ± 2.1 nM and 40 ± 28 nM, respectively. Moreover, the values for the half-life in data set [6], in data set [7] and in data set [8] were greater than 41.7 days, greater than 150 h and greater than 10 h, respectively. Besides, the CC50 in data set [2] (cem cells) turned out to be 58600 ± 19400 nM. The “Selectivity index (SI)” value in data set [3] worked out at 3447.
Consider `CCCCCCCCCCCCCCCCCCP(=O)(OCCCC)OP(=O)(O)OC[C@H]1O[C@@H](n2cc(C)c(=O)[nH]c2=O)C[C@@H]1F` (some centres unmarked) [No 22], for which the EC50 in data set [1] was found to be 15 ± 4 nM; in data set [4], 6.3 ± 4.6 nM; in data set [5], 42 ± 13 nM. Besides, the half-life in data set [6] is greater than 83.3 days. It took 54300 ± 15200 nM to reach half-maximal cytotoxicity in data set [2] (cem cells) (CC50). Further, the “Selectivity index (SI)” value in data set [3] was 3620.
Regarding `CCCCCCCCCCCCCCCCCCOP(=O)(OCCCC)OP(=O)(O)OC[C@H]1O[C@@H](n2ccc(=O)[nH]c2=O)C[C@@H]1F` (some centres unmarked) [No 23], the EC50 in data set [1] came to 210 ± 100 nM; in data set [4], 140 ± 71 nM; in data set [5], 150 ± 20 nM. For the same compound, the half-life in data set [6] is 33.2 days. Besides, the midpoint of cytotoxicity in data set [2] (cem cells), the CC50, lay at 44800 nM. The “Selectivity index (SI)” value in data set [3] is 213.
On to `CCCCCCCCCCCCCCCCCCP(=O)(OCCCC)OP(=O)(O)OC[C@H]1O[C@@H](n2ccc(=O)[nH]c2=O)C[C@@H]1F` (some centres unmarked) [No 24], for which the figures for the EC50 in data set [1], in data set [4] and in data set [5] were 51 ± 69 nM, 57 ± 9 nM and 76 ± 77 nM, respectively. The half-life in data set [6] was greater than 83.3 days; in data set [7] it was greater than 150 h; in data set [8] it was greater than 20 h. The same compound came in with a 50% cytotoxic concentration (CC50) in data set [2] (cem cells) of 59100 ± 20800 nM. Moreover, the “Selectivity index (SI)” value in data set [3] stood at 1159.
Regarding `CCCCCCCCCCCCCCCCCCOP(=O)(OCCCC)OP(=O)(O)OC[C@@H]1C=C[C@H](n2cnc3c(NC4CC4)nc(N)nc32)C1` (some centres unmarked) [No 25], the EC50 in data set [1] was found to be 3.1 ± 2.7 nM; in data set [4], 16 ± 4 nM; in data set [5] it was 8.7 ± 0.4 nM. Further, the half-life in data set [6] was 2.33 days; in data set [7], 41 h; in data set [8], 6.7 h. In data set [2] (cem cells), the CC50 was 10500 ± 4600 nM. In addition, the “Selectivity index (SI)” value in data set [3] stood at 3387.
`CCCCCCCCCCCCCCCCCCP(=O)(OCCCC)OP(=O)(O)OC[C@@H]1C=C[C@H](n2cnc3c(NC4CC4)nc(N)nc32)C1` (some centres unmarked) [No 26]: the EC50 in data set [1] is less than 1 nM; in data set [4], 34 ± 13 nM; in data set [5], 26 ± 18 nM. Moreover, the half-life in data set [6] was greater than 41.7 days; in data set [7], greater than 150 h; in data set [8] it was greater than 10 h. In data set [2] (cem cells), this compound gave a CC50 greater than 100000 nM. Further, in data set [3], the “Selectivity index (SI)” value is reported as greater than 100000.
Take `Cc1cn([C@H]2C=C[C@@H](CO)O2)c(=O)[nH]c1=O` [d4T, stavudine, reference compound]: the EC50 in data set [1] is greater than 50000 nM; in data set [4], 330 ± 130 nM; in data set [5], 970 ± 500 nM. This compound gave a CC50 in data set [2] greater than 50000 nM. Moreover, the “Selectivity index (SI)” value in data set [3] is greater than 1.
